Assay results published in patent US20110015181A1, “ALKYLAMINOPYRIDINE DERIVATIVE” (priority 2008, published 2011).

How the values were obtained:
human ERG (hERG) = human ERG (hERG) (Homo sapiens, UniProt Q12809); experiment: Affinity for human ERG (hERG); assay type: binding
Description: In addition, the affinities of compounds according to the present invention and compounds described in Patent Document 7 described above for human ERG (hERG) were examined. This examination method was carried out according to the method described in documents (for example, Japanese Unexamined Patent Application Publication No. 2004-512268).

human NPY Y1 receptor = target: T1, human NPY Y1 receptor (Homo sapiens, UniProt P25929); experiment: NPY binding inhibition test ([125I] peptide YY binding to membranes of NPY Y1 receptor expression cells); conditions: membrane of CHO-K1 cells expressing human NPY Y1 receptor, 25° C., 2 hours; read-out: IC50 against specific [125I] peptide YY binding
T1 construct: expressed in transfected cells; host or cells: CHO-K1 NFAT β-Lactamase (Aurora)
T1 sequence (P25929 1-384): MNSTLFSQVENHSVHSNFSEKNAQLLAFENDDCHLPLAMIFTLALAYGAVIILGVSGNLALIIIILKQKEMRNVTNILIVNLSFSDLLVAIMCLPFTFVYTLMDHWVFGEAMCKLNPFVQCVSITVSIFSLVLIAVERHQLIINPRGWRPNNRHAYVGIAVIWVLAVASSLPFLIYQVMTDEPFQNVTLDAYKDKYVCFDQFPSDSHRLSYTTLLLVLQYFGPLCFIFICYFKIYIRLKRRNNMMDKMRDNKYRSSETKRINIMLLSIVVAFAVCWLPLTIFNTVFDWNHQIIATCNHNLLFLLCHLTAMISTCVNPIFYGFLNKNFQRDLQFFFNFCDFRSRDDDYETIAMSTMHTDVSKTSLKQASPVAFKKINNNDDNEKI
Description: A cDNA sequence encoding a human NPY Y1 receptor [Accession No. L07615] was cloned into expression vectors pEF1x (made by Invitrogen Inc.). The obtained expression vectors were transfected to host cells CHO-K1 NFAT β-Lactamase (Aurora) by cationic lipid method [see Proceedings of the National Academy of Sciences of the United States of America, 84: 7413 (1987)] to give NPY Y1 receptor expression cells.
A membrane sample prepared from the cells which expressed the NPY Yl receptor was incubated together with a test compound and [^125I] peptide YY (manufactured by Amersham) (20,000 cpm) in an assay buffer (HBSS buffer (pH 7.4) containing 20 mM HEPES, 0.5% BSA, 1 mM phenylmethylsulfonylfluoride and 0.1% bacitracin) at 25° C. for 2 hours, then filtered through a glass filter GF/C, and washed with 20 mM HEPES buffer (pH 7.4), followed by measuring the radioactivity of the cake on the glass filter with γ counter. Nonspecific binding was measured in the presence of 1 μM peptide YY and a 50% Inhibitory Concentration (IC50) of the test compound against specific [^125I] peptide YY binding was determined [Endocrinology, 131: 2090 (1992)].

[1] = compounds according to the present invention
[2] = compounds described in Patent Document 7 (WO 97/34873)

human ERG (hERG), sequence (Q12809 whole entry): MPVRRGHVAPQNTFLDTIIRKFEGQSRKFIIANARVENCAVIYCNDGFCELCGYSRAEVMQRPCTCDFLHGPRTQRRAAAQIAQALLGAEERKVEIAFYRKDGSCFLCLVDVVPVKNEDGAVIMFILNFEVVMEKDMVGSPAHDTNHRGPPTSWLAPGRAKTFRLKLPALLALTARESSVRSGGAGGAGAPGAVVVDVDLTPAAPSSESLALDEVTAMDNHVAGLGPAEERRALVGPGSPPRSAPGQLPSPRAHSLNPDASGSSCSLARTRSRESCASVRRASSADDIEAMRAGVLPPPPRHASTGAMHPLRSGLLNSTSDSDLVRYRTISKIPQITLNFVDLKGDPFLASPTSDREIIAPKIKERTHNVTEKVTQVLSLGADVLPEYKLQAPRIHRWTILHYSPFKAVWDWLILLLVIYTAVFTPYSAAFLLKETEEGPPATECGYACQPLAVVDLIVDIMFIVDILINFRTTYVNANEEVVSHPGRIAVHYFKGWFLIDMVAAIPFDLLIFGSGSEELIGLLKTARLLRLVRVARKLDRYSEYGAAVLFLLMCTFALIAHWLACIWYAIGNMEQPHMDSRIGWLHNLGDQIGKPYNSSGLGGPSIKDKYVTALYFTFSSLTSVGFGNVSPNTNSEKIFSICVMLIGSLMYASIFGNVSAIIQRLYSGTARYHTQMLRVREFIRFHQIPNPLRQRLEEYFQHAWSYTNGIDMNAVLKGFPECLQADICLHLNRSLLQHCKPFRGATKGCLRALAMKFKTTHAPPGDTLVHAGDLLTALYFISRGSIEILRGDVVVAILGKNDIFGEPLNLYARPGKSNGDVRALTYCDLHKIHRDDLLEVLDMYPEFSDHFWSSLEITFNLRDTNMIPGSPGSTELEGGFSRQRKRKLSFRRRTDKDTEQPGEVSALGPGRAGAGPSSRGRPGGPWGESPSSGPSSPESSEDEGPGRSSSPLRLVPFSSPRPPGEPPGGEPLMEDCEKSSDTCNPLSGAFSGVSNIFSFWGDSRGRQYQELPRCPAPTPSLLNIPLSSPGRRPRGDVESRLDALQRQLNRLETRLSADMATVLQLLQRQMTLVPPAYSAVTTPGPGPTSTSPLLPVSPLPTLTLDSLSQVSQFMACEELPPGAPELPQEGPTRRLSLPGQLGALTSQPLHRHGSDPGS

Row | Compound | IC50 (human NPY Y1 receptor) [nM] | Activity for Human ERG (human ERG (hERG); [1]) [µM] | Activity for Human ERG (human ERG (hERG); [2]) [µM]
1 | COC(=O)CNc1cc(N2C3CCC2COC3)cc(CSc2nc(C)c(C)s2)n1 [Example 38, {[6-{[(4,5-dimethyl-1,3-thiazol-2-yl)thio]methyl}-4-(3-oxa-8-azabicyclo[3,2,1]octo-8-yl)-2-pyridinyl]amino}acetic acid methyl ester] | 2.8 | 7.4 | –
2 | CCc1oc(CC(O)c2cc(N3C4CCC3COC4)cc(NCC(F)(F)F)n2)nc1C (single isomer, unassigned) [Example 21] | 26 | 14 | –
3 | Cc1nc(SCc2cc(N3CCC(F)(F)CC3)cc(NCC(F)(F)F)n2)nn1C [Example 5, 4-(4,4-difluoro-1-piperidinyl)-6-{[(1,5-dimethyl-1H-1,2,4-triazol-3-yl)thio]methyl}-N-(2,2,2-trifluoroethyl)-2-pyridinamine] | 17 | 16 | –
4 | CCc1nnc(SCc2cc(N3CCOCC3)cc(NCc3cccc(O)c3)n2)s1 [reference compound] | – | – | 0.16
5 | CCc1nnc(SCc2cc(N3CCOCC3)cc(NCc3cccc(OC)c3)n2)s1 [reference compound] | – | – | 0.028
6 | Cc1nc(SCc2cc(N3C4CCC3COC4)cc(NCC#N)n2)sc1C [Example 1] | 16 | 33 | –
7 | Cc1cc(SCc2cc(N3CCC(F)(F)CC3)cc(NCC(F)(F)F)n2)nn1C [Example 9, 4-(4,4-difluoro-1-piperidinyl)-6-{[(1,5-dimethyl-1H-pyrazol-3-yl)thio]methyl}-N-(2,2,2-trifluoroethyl)-2-pyridinamine] | 2.2 | 5.3 | –
8 | CCc1nnc(SCc2cc(N3CCOCC3)cc(NCc3cccc(NC(C)=O)c3)n2)s1 [reference compound] | – | – | 0.57

Continued, in another order:

Row | IC50 (human NPY Y1 receptor) [nM] | Compound | Activity for Human ERG (human ERG (hERG); [1]) [µM] | Activity for Human ERG (human ERG (hERG); [2]) [µM]
9 | 27.5 | O=S1(=O)CCN(c2cc(CSc3nc4c(o3)CCCC4)nc(NCC(F)(F)F)c2)CC1 [Example 12] | 14 | –
10 | 6.5 | Cc1nc(SCc2cc(N3CCSCC3)cc(NCC#N)n2)n(C)c1C [Example 34, [(4-(4-thiomorpholinyl)-6-{[(1,4,5-trimethyl-1H-imidazol-2-yl)thio]methyl}-2-pyridinyl)amino]acetonitrile] | 7.3 | –
11 | 16 | Cc1nc(SCc2cc(N3CCC(F)(F)CC3)cc(NCCS(C)(=O)=O)n2)oc1C [Example 48, 4-(4,4-difluoro-1-piperidinyl)-6-{[(4,5-dimethyl-1,3-oxazol-2-yl)thio]methyl}-N-[2-(methylsulfonyl)ethyl]-2-pyridinamine] | 5.9 | –
12 | 44 | Cc1nc(SCc2cc(N3CCCCCC3)cc(NCC(F)(F)F)n2)cn1C [Example 13, 4-(1-azepanyl)-6-{[(1,2-dimethyl-1H-imidazol-4-yl)thio]methyl}-N-(2,2,2-trifluoroethyl)-2-pyridinamine] | 8.2 | –
13 | 10 | Cc1cc(CCc2cc(N3CCC(F)(F)CC3)cc(NCC#N)n2)nn1C [Example 32, ({4-(4,4-difluoro-1-piperidinyl)-6-[2-(1,5-dimethyl-1H-pyrazol-3-yl)ethyl]-2-pyridinyl}amino)acetonitrile] | 11 | –
